# PubChem BioAssay AID328 (DTP/NCI, 2004)
# Several values for one entry are separate records, joined by “and”; a condition that tells them apart may be missing. Equal values may be shown once. Toxic doses and inconclusive results are not listed.
# Tested on: BDF1 mice, P388 leukemia ip, median survival T/C
# Assay: NCI In Vivo Anticancer Drug Screen. Data for tumor model P388 Leukemia (intraperitoneal) in B6D2F1 (BDF1) mice
# Settings: endpoint: median survival time, higher = longer survival
# Method in brief: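 Steps: implant the tumour, treat one group with compound and another with vehicle, record survival, then divide treated by control.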
# [1] = dose: 25.0 mg/kg/injection, schedule: Q01DX009 (ip), vehicle: saline with Tween-80
# [2] = dose: 50.0 mg/kg/injection, schedule: Q01DX009 (ip), vehicle: saline with Tween-80
# [3] = dose: 50.0 mg/kg/injection, schedule: Q04DX003 (ip), vehicle: saline with Tween-80
# [4] = dose: 100.0 mg/kg/injection, schedule: Q01DX009 (ip), vehicle: saline with Tween-80
# [5] = dose: 100.0 mg/kg/injection, schedule: Q04DX003 (ip), vehicle: Klucel (hydroxypropylcellulose) (HPC)
# [6] = dose: 200.0 mg/kg/injection, schedule: Q04DX003 (ip), vehicle: Klucel (hydroxypropylcellulose) (HPC)
# [7] = dose: 400.0 mg/kg/injection, schedule: Q04DX003 (ip), vehicle: Klucel (hydroxypropylcellulose) (HPC)
# [8] = dose: 200.0 mg/kg/injection, schedule: Q01DX009 (ip), vehicle: saline with Tween-80
# [9] = dose: 100.0 mg/kg/injection, schedule: Q01DX001 (ip), vehicle: saline
# [10] = dose: 12.5 mg/kg/injection, schedule: Q01DX009 (ip), vehicle: saline with Tween-80
# [11] = dose: 100.0 mg/kg/injection, schedule: Q01DX009 (ip), vehicle: saline
# [12] = dose: 25.0 mg/kg/injection, schedule: Q04DX003 (ip), vehicle: saline with Tween-80
smiles,measurement,setting,value
Nc1nc(SCc2ccccc2)c2ncn(C3OC(CO)CC3O)c2n1 (centres undefined),T/C,"dose: 100.0 mg/kg/injection, schedule: Q01DX009 (ip), vehicle: saline sonified",100 % of control
same,T/C,"dose: 100.0 mg/kg/injection, schedule: Q04DX003 (ip), vehicle: saline sonified",109 % of control
same,T/C,"dose: 200.0 mg/kg/injection, schedule: Q01DX009 (ip), vehicle: saline sonified",100 % of control
same,T/C,"dose: 200.0 mg/kg/injection, schedule: Q04DX003 (ip), vehicle: saline sonified",109 % of control
same,T/C,"dose: 400.0 mg/kg/injection, schedule: Q01DX009 (ip), vehicle: saline sonified",113 % of control
same,T/C,"dose: 400.0 mg/kg/injection, schedule: Q04DX003 (ip), vehicle: saline sonified",109 % of control
Cc1cc(-c2ccccc2)[s+]s1,T/C,[1],122 % of control
same,T/C,[2],113 % of control
same,T/C,[3],109 % of control
same,T/C,[4],117 % of control
same,T/C,"dose: 200.0 mg/kg/injection, schedule: Q04DX003 (ip), vehicle: saline with Tween-80",117 % of control
same,T/C,"dose: 400.0 mg/kg/injection, schedule: Q04DX003 (ip), vehicle: saline with Tween-80",118 % of control
CCCCCCCC(=O)[O][Hg][CH2]C1COC([CH2][Hg][O]C(=O)CCCCCCC)CO1 (centres undefined),T/C,"dose: 12.5 mg/kg/injection, schedule: Q01DX009 (ip), vehicle: saline sonified",110 % of control
same,T/C,"dose: 50.0 mg/kg/injection, schedule: Q04DX003 (ip), vehicle: saline sonified",116 % of control
O=C1NC(=O)C(Cc2ccccc2)(c2ccccc2)N1 (centres undefined),T/C,"dose: 75.0 mg/kg/injection, schedule: Q01DX009 (ip), vehicle: saline with Tween-80",97 % of control
same,T/C,"dose: 150.0 mg/kg/injection, schedule: Q01DX009 (ip), vehicle: saline with Tween-80",100 % of control
CC1(C)C2CC3C(=CCCC3(Cl)C#N)C1C2 (centres undefined),T/C,[5],100 % of control
same,T/C,[6],95 % of control
same,T/C,[7],95 % of control
CCOC1CC(C)C(C=O)C(C#N)(C#N)C1(C#N)C#N (centres undefined),T/C,"dose: 12.5 mg/kg/injection, schedule: Q01DX001 (ip), vehicle: saline with Tween-80",100 % of control
same,T/C,"dose: 25.0 mg/kg/injection, schedule: Q01DX001 (ip), vehicle: saline with Tween-80",109 % of control
same,T/C,"dose: 50.0 mg/kg/injection, schedule: Q01DX001 (ip), vehicle: saline with Tween-80",106 % of control
COc1ccc(C(C)=O)cc1CO/N=C1\CSCc2ccccc21,T/C,[2],101 % of control
same,T/C,[4],119 % of control
same,T/C,[8],108 % of control
CNC1=C2NC(=O)/C(C)=C\C=C\C(C)C(O)C(C)C(O)C(C)C(OC(C)=O)C(C)C(OC)/C=C/OC3(C)Oc4c(C)c(O)c(c(c4C3=O)C1=O)C2=O (centres undefined),T/C,[2],95 % of control
same,T/C,[4],90 % of control
same,T/C,[8],100 % of control
c1ccc(CSc2ncnc3nc[nH]c23)cc1,T/C,"dose: 12.5 mg/kg/injection, schedule: Q01DX010 (ip), vehicle: saline",100 % of control
same,T/C,"dose: 25.0 mg/kg/injection, schedule: Q01DX010 (ip), vehicle: saline",100 % of control
same,T/C,"dose: 50.0 mg/kg/injection, schedule: Q01DX010 (ip), vehicle: saline",100 % of control
same,T/C,"dose: 100.0 mg/kg/injection, schedule: Q01DX010 (ip), vehicle: saline",100 % of control
Cc1ccc(N2C(=O)CC(Sc3ccccc3N)C2=O)cc1 (centres undefined),T/C,"dose: 50.0 mg/kg/injection, schedule: Q01DX009 (ip), vehicle: Klucel (hydroxypropylcellulose) (HPC)",105 % of control
same,T/C,[9],100 % of control
same,T/C,"dose: 100.0 mg/kg/injection, schedule: Q01DX009 (ip), vehicle: Klucel (hydroxypropylcellulose) (HPC)",105 % of control
same,T/C,[5],95 % of control
same,T/C,"dose: 200.0 mg/kg/injection, schedule: Q01DX001 (ip), vehicle: saline",90 % of control
same,T/C,"dose: 200.0 mg/kg/injection, schedule: Q01DX009 (ip), vehicle: Klucel (hydroxypropylcellulose) (HPC)",105 % of control
same,T/C,[6],87 % of control
same,T/C,"dose: 400.0 mg/kg/injection, schedule: Q01DX001 (ip), vehicle: saline",90 % of control
N#CCCCCCl,T/C,"dose: 25.0 mg/kg/injection, schedule: Q01DX001 (ip), vehicle: saline",90 % of control
same,T/C,"dose: 50.0 mg/kg/injection, schedule: Q01DX001 (ip), vehicle: saline",100 % of control
same,T/C,[9],95 % of control and 100 % of control
BrCCC[P+](c1ccccc1)(c1ccccc1)c1ccccc1,T/C,"dose: 0.94 mg/kg/injection, schedule: Q01DX010 (ip), vehicle: saline",95 % of control
same,T/C,"dose: 1.88 mg/kg/injection, schedule: Q01DX010 (ip), vehicle: saline",104 % of control
same,T/C,"dose: 1.9 mg/kg/injection, schedule: Q01DX009 (ip), vehicle: saline",105 % of control
same,T/C,"dose: 3.13 mg/kg/injection, schedule: Q04DX003 (ip), vehicle: saline",92 % of control
same,T/C,"dose: 3.75 mg/kg/injection, schedule: Q01DX009 (ip), vehicle: saline",122 % of control
same,T/C,"dose: 3.75 mg/kg/injection, schedule: Q01DX010 (ip), vehicle: saline",114 % of control
same,T/C,"dose: 6.25 mg/kg/injection, schedule: Q04DX003 (ip), vehicle: saline",92 % of control
same,T/C,"dose: 7.5 mg/kg/injection, schedule: Q01DX009 (ip), vehicle: saline",111 % of control
same,T/C,"dose: 7.5 mg/kg/injection, schedule: Q01DX010 (ip), vehicle: saline",123 % of control
same,T/C,[10],150 % of control
same,T/C,"dose: 12.5 mg/kg/injection, schedule: Q04DX003 (ip), vehicle: saline",103 % of control
same,T/C,"dose: 15.0 mg/kg/injection, schedule: Q01DX009 (ip), vehicle: saline",194 % of control
same,T/C,"dose: 15.0 mg/kg/injection, schedule: Q01DX010 (ip), vehicle: saline",118 % of control
CNc1nc2c(N)ncnc2n1C1OC(CO)C(O)C1O (centres undefined),T/C,"dose: 6.25 mg/kg/injection, schedule: Q01DX009 (ip), vehicle: saline with Tween-80",105 % of control
same,T/C,[10],123 % of control
CC1(C)OC2(C)CCC1C(O)C2N1CCCCC1 (centres undefined),T/C,"dose: 50.0 mg/kg/injection, schedule: Q01DX005 (ip), vehicle: saline with Tween-80",108 % of control
same,T/C,"dose: 100.0 mg/kg/injection, schedule: Q01DX005 (ip), vehicle: saline with Tween-80",95 % of control
same,T/C,"dose: 200.0 mg/kg/injection, schedule: Q01DX005 (ip), vehicle: saline with Tween-80",106 % of control
C=CCC(CC)C(=O)O (centres undefined),T/C,"dose: 50.0 mg/kg/injection, schedule: Q01DX009 (ip), vehicle: saline",100 % of control
same,T/C,[11],104 % of control
CCOC(=O)/C(=C(/N)C1OC(COC(c2ccccc2)(c2ccccc2)c2ccccc2)C2OC(C)(C)OC12)C1CC(=O)N(C)C1=O (centres undefined),T/C,[2],99 % of control
same,T/C,[4],90 % of control
C=CCN1c2ccccc2Sc2cnccc21,T/C,[2],109 % of control
same,T/C,[4],100 % of control and 104 % of control
same,T/C,[8],100 % of control
C=CC(OC(C)=O)OC(C)=O,T/C,"dose: 6.0 mg/kg/injection, schedule: Q01DX009 (ip), vehicle: saline with Tween-80",104 % of control
same,T/C,"dose: 8.0 mg/kg/injection, schedule: Q01DX009 (ip), vehicle: saline with Tween-80",115 % of control
same,T/C,"dose: 12.0 mg/kg/injection, schedule: Q01DX009 (ip), vehicle: saline with Tween-80",111 % of control
same,T/C,"dose: 12.5 mg/kg/injection, schedule: Q04DX003 (ip), vehicle: saline with Tween-80",108 % of control
same,T/C,"dose: 18.0 mg/kg/injection, schedule: Q01DX009 (ip), vehicle: saline with Tween-80",100 % of control
same,T/C,[12],117 % of control
CC1=C(Cc2ccccc2)C(C)(C)CCC1,T/C,[2],103 % of control
same,T/C,[4],112 % of control
same,T/C,[8],121 % of control
CC(=O)Nc1cc(C)no1,T/C,[11],90 % of control
same,T/C,"dose: 100.0 mg/kg/injection, schedule: Q04DX003 (ip), vehicle: saline",109 % of control
same,T/C,"dose: 200.0 mg/kg/injection, schedule: Q01DX009 (ip), vehicle: saline",95 % of control
same,T/C,"dose: 200.0 mg/kg/injection, schedule: Q04DX003 (ip), vehicle: saline",109 % of control
same,T/C,"dose: 400.0 mg/kg/injection, schedule: Q01DX009 (ip), vehicle: saline",100 % of control
same,T/C,"dose: 400.0 mg/kg/injection, schedule: Q04DX003 (ip), vehicle: saline",104 % of control
Cc1nc2nc(N)[nH]c(=O)c2[nH]c1=O,T/C,[4],104 % of control
same,T/C,[8],100 % of control
same,T/C,"dose: 400.0 mg/kg/injection, schedule: Q01DX009 (ip), vehicle: saline with Tween-80",109 % of control
CCCCn1nnc2c(NN)nc(N)nc21,T/C,[1],100 % of control
same,T/C,[12],100 % of control
same,T/C,[2],100 % of control
same,T/C,[3],100 % of control
same,T/C,"dose: 100.0 mg/kg/injection, schedule: Q04DX003 (ip), vehicle: saline with Tween-80",100 % of control
COc1cc(C)ccc1C(=O)c1ccc(C)cc1OC,T/C,[5],90 % of control
same,T/C,[6],90 % of control
same,T/C,[7],109 % of control
